Reference: publication PMC9158485, “Highly Efficient Biotransformation of Phenolic Glycosides Using a Recombinant β-Glucosidase From White Rot Fungus Trametes trogii” (Frontiers in Microbiology, 2022)

Test system: T1, TtBgl3
T1 construct: calculated 97 kDa; primer-encoded N-terminus MSRDFL, C-terminus FTWNGV; GH3, GH3_C and Fn3-like domains
Experiment: release of 4-nitrophenol at […] nm, Lineweaver-Burk
Assay type: biochemical, Trametes trogii
Details: 50°C, pH 5.5 (methods: phosphate citrate buffer 200 mM, pH 5.0, 55°C)

## O=[N+]([O-])c1ccc(O[C@@H]2O[C@H](CO)[C@@H](O)[C@H](O)[C@H]2O)cc1 [4-nitrophenyl β-D-glucopyranoside]
  Km: 550 µM
